Experimental data from patent US8329686B2, “Isatin analogues and uses therefor” (Washington University, priority 2006, dated 2012).
Like-named read-outs stand apart in the source and are kept apart here. Each block holds one compound with its values, some of them ahead of it.

Key:
Type in all cases: biochemical
caspase 1 = biological target: T1, caspase 1 (Homo sapiens, UniProt P29466); test: Enzyme inhibition assay, caspase 1 (fluorogenic Ac-YVAD-AMC)
T1 construct: purchased BIOMOL Research Laboratories (Plymouth Meeting, Pa.)
T1 sequence (P29466 120-297 limits assumed): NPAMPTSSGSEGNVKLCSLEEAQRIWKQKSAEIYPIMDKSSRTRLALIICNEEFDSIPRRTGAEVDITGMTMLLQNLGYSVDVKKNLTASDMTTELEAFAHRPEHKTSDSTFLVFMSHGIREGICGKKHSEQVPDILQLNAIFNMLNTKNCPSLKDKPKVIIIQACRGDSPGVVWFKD
T1 sequence (P29466 317-404 limits assumed): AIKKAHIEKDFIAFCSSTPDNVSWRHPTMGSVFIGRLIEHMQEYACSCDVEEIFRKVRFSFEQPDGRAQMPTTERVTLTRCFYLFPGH

caspase 6 = biological target: T2, caspase 6 (Homo sapiens, UniProt P55212); test: Enzyme inhibition assay, caspase 6 (fluorogenic Ac-VEID-AMC)
T2 construct: purchased Sigma-Aldrich (St. Louis, Mo.)
T2 sequence (P55212 24-179 limits assumed): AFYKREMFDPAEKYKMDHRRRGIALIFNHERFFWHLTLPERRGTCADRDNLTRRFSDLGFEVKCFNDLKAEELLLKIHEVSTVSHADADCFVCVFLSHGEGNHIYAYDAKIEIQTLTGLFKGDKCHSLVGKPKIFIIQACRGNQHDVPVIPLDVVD
T2 sequence (P55212 194-293 limits assumed): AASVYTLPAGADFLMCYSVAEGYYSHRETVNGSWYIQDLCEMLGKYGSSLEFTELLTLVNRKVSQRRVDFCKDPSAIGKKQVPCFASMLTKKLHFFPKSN

caspase 7 = biological target: T3, caspase 7 (Homo sapiens, UniProt P55210); test: Enzyme inhibition assay, caspase 7 (fluorogenic Ac-DEVD-AMC)
T3 construct: purchased Sigma-Aldrich (St. Louis, Mo.)
T3 sequence (P55210 24-198 limits assumed): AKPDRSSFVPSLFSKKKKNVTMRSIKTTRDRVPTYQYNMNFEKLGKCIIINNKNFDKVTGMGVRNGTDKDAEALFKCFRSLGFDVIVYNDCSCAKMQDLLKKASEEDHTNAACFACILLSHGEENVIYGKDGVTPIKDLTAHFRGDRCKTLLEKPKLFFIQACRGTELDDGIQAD
T3 sequence (P55210 207-303 limits assumed): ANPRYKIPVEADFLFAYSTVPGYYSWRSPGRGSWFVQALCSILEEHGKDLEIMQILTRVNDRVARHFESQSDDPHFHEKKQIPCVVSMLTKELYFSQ

caspase-3 = biological target: T4, caspase-3 (Homo sapiens, UniProt P42574); test: Enzyme inhibition assay, caspase 3 (fluorogenic Ac-DEVD-AMC)
T4 construct: purchased Sigma-Aldrich (St. Louis, Mo.)
T4 sequence (P42574 29-175 limits assumed): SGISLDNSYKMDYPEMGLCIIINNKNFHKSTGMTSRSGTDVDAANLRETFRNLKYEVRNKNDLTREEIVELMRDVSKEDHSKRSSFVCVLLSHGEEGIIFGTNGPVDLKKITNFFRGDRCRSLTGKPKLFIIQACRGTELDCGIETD
T4 sequence (P42574 176-277 limits assumed): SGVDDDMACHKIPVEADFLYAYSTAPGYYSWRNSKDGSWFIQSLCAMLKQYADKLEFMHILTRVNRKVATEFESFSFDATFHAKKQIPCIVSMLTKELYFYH

caspase 8 = biological target: T5, caspase 8 (Homo sapiens, UniProt Q14790); test: Enzyme inhibition assay, caspase 8 (fluorogenic Ac-IETD-AMC)
T5 construct: purchased Sigma-Aldrich (St. Louis, Mo.)
T5 sequence (Q14790 217-374 limits assumed): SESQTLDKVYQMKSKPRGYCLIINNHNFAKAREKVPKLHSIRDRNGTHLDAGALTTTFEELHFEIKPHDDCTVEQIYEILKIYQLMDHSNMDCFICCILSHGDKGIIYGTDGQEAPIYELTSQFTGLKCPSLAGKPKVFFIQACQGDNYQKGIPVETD
T5 sequence (Q14790 385-479 limits assumed): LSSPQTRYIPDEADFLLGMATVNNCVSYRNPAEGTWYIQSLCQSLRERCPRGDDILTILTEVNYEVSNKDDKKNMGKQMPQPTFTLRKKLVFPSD

[1] = Table 1, read-out: IC50 (nM) Caspase 1
[2] = Table 1, read-out: IC50 (nM) Caspase 6
[3] = Table 1, read-out: IC50 (nM) Caspase 7
[4] = Table 1, read-out: IC50 (nM) Caspase 3
[5] = Table 1, read-out: IC50 (nM) Caspase 8
[6] = Table 2, read-out: IC50 (nM) Caspase 8
[7] = Table 7, read-out: IC50 (nM) Casp-8
[8] = Table 6, read-out: IC50 (nM) caspase-1
[9] = Table 6, read-out: IC50 (nM) caspase-6
[10] = Table 6, read-out: IC50 (nM) caspase-7
[11] = Table 6, read-out: IC50 (nM) caspase-3
[12] = Table 6, read-out: IC50 (nM) caspase-8
[13] = Table 7, read-out: IC50 (nM) Casp-1
[14] = Table 2, read-out: IC50 (nM) Caspase 1
[15] = Table 2, read-out: IC50 (nM) Caspase 6
[16] = Table 7, read-out: IC50 (nM) Casp-6
[17] = Table 2, read-out: IC50 (nM) Caspase 7
[18] = Table 7, read-out: IC50 (nM) Casp-7
[19] = Table 2, read-out: IC50 (nM) Caspase 3
[20] = Table 7, read-out: IC50 (nM) Casp-3

Compound: N#CC(C#N)=C1C(=O)N(Cc2ccccc2)c2ccc(S(=O)(=O)N3CCCC3COc3ccccc3)cc21 (stereo not shown) [Compound 27b, 2-[1-Benzyl-2-oxo-5-(2-phenoxymethyl-pyrrolidine-1-sulfonyl)-1,2-dihydroindol-3-yl-idene]-malononitrile]
- IC50 (caspase 1): 6220 nM
- IC50 (caspase 6): 918 ± 151 nM
- IC50 (caspase 7; IC50 (nM) Casp-7, Table 7): 51.7 ± 6.2 nM
- IC50 (caspase 7; IC50 (nM) Caspase 7, Table 2): 51.7 ± 6.2 nM
- IC50 (caspase 7; IC50 for caspase-7): 51.7 nM
- IC50 (caspase-3; IC50 (nM) Casp-3, Table 7): 27.8 ± 2.5 nM
- IC50 (caspase-3; IC50 (nM) Caspase 3, Table 2): 27.8 ± 2.5 nM
- IC50 (caspase-3; IC50 for caspase-3): 27.8 nM
- IC50 (caspase 8; [6]): > 50000 nM
- IC50 (caspase 8; [7]): > 50000 nM

Compound: O=C1C(=O)N(Cc2ccc(O)cc2)c2ccc(S(=O)(=O)N3CCCC3COc3cccnc3)cc21 (stereo not shown) [Compound 28b, 1-(4-Hydroxy-benzyl)-5-[2-(pyridin-3-yl-oxymethyl)-pyrrolidine-1-sulfonyl]-1H-indole-2,3-dione]
- IC50 (caspase 1; [13]): > 15000 nM
- IC50 (caspase 6): 9550 ± 354 nM
- IC50 (caspase 7; IC50 (nM) Casp-7, Table 7): 11.7 ± 1 nM
- IC50 (caspase-3; IC50 (nM) Casp-3, Table 7): 3.9 ± 0.6 nM
- IC50 (caspase 8; [7]): > 50000 nM

Compound: N#CC(C#N)=C1C(=O)N(Cc2ccc(O)cc2)c2ccc(S(=O)(=O)N3CCC[C@H]3COc3ccccc3)cc21 [Compound 27c]
- IC50 (caspase 1; [14]): 2300 nM
- IC50 (caspase 1; [13]): 2300 ± 250 nM
- IC50 (caspase 6; [15]): 744 ± 48 nM
- IC50 (caspase 6; [16]): 744 ± 48 nM
- IC50 (caspase 7; [17]): 126 ± 19 nM
- IC50 (caspase 7; [18]): 126 ± 19.3 nM
- IC50 (caspase 7; read-out: IC50 for caspase-7): 126 nM
- IC50 (caspase-3; [19]): 31.8 ± 6.2 nM
- IC50 (caspase-3; [20]): 31.8 ± 6.2 nM
- IC50 (caspase-3; read-out: IC50 for caspase-3): 31.8 nM
- IC50 (caspase 8; [6]): > 50000 nM
- IC50 (caspase 8; [7]): > 50000 nM

Compound: N#CC(C#N)=C1C(=O)N(Cc2ccc(O)cc2)c2ccc(S(=O)(=O)N3CCCC3COc3cccnc3)cc21 (stereo not shown) [Compound 30b, 2-{1-(4-Hydroxy-benzyl)-2-oxo-5-[2-(pyridine-3-yloxymethyl)-pyrrolidine-1-sulfonyl]-1,2-dihydro-indol-3-yl-idene}-malononitrile]
- IC50 (caspase 1): 2720 nM
- IC50 (caspase 1; IC50 (nM) Casp-1, Table 7): 2720 ± 580 nM
- IC50 (caspase 1; read-out: IC50 for caspase-1): 2700 to 3200 nM
- IC50 (caspase 6): 650 ± 22 nM
- IC50 (caspase 6; [15]): 850 ± 21 nM
- IC50 (caspase 6; read-out: IC50 for caspase-6): 515 to 770 nM
- IC50 (caspase 7; IC50 (nM) Casp-7, Table 7): 28.3 ± 5.4 nM
- IC50 (caspase 7; IC50 (nM) Caspase 7, Table 2): 28.3 ± 5.4 nM
- IC50 (caspase 7; IC50 for caspase-7): 28.6 nM
- IC50 (caspase-3; IC50 (nM) Casp-3, Table 7): 7.8 ± 1.9 nM
- IC50 (caspase-3; IC50 (nM) Caspase 3, Table 2): 7.8 ± 1.9 nM
- IC50 (caspase-3; IC50 for caspase-3): 7.8 nM
- IC50 (caspase 8; [6]): > 50000 nM
- IC50 (caspase 8; [7]): > 50000 nM
- IC50 (caspase 8; read-out: IC50 for caspase-8): > 50000 nM

Compound: N#CC(C#N)=C1C(=O)N(Cc2ccc(Br)cc2)c2ccc(S(=O)(=O)N3CCCC3COc3ccccc3)cc21 (stereo not shown) [Compound 27d, 2-[1-(4-Bromo-benzyl)-2-oxo-5-(2-phenoxymethyl-pyrrolidine-1-sulfonyl)-1,2-dihydro-indol-3-yl-idene]-malononitrile]
- IC50 (caspase 1; [14]): 5700 nM
- IC50 (caspase 1; [13]): 5700 ± 850 nM
- IC50 (caspase 6; [15]): 840 ± 125 nM
- IC50 (caspase 6; [16]): 840 ± 125 nM
- IC50 (caspase 7; [17]): 92.2 ± 11.8 nM
- IC50 (caspase 7; [18]): 92.2 ± 11.8 nM
- IC50 (caspase 7; read-out: IC50 for caspase-7): 92.2 nM
- IC50 (caspase-3; [19]): 20.1 ± 1.3 nM
- IC50 (caspase-3; [20]): 20.1 ± 1.3 nM
- IC50 (caspase-3; read-out: IC50 for caspase-3): 20.1 nM
- IC50 (caspase 8; [6]): > 50000 nM
- IC50 (caspase 8; [7]): > 50000 nM

Further lines, results first:

- IC50 (caspase 1; [1]): > 10000 nM
- IC50 (caspase 6; [2]): 8700 nM
- IC50 (caspase 7; [3]): 17.6 ± 0.4 nM
- IC50 (caspase-3; [4]): 3.6 ± 0.5 nM
- IC50 (caspase 8; [5]): > 50000 nM
Compound: O=C1C(=O)N(Cc2ccc(OCCF)cc2)c2ccc(S(=O)(=O)N3CC[C@H]3COc3cccnc3)cc21 [WC-II-101]

- IC50 (caspase 1; Table 4, read-out: IC50 (nM) caspase-1): > 10000 nM
- IC50 (caspase 6; Table 4, read-out: IC50 (nM) caspase-6): > 5000 nM
- IC50 (caspase 7; Table 4, read-out: IC50 (nM) caspase-7): 21.8 ± 3.5 nM
- IC50 (caspase-3; Table 4, read-out: IC50 (nM) caspase-3): 14.5 ± 1.6 nM
- IC50 (caspase 8; Table 4, read-out: IC50 (nM) caspase-8): > 50000 nM
Compound: (S)-1-(4-Methoxybenzyl)-5-(2-phenoxymethyl-pyrrolidine-1-sulfonyl)-1H-indole-2,3-dione [Compound 11b]

- IC50 (caspase 1; [8]): > 5000 nM
- IC50 (caspase 6; [9]): > 5000 nM
- IC50 (caspase 7; [10]): 142 ± 22.6 nM
- IC50 (caspase-3; [11]): 20.4 ± 1.7 nM
- IC50 (caspase 8; [12]): > 50000 nM
Compound: O=C1Nc2ccc(S(=O)(=O)N3CCCC3COc3ccncc3)cc2C1=O (stereo not shown) [Compound 23, 5-(2-(Pyridin-4-yl-oxymethyl)-pyrrolidine-1-sulfonyl)-1H-indole-2,3-dione]

- IC50 (caspase 1; [1]): > 20000 nM
- IC50 (caspase 6; [2]): 6900 nM
- IC50 (caspase 7; [3]): 11.3 ± 0.6 nM
- IC50 (caspase-3; [4]): 3.1 ± 0.4 nM
- IC50 (caspase 8; [5]): > 50000 nM
Compound: O=C1C(=O)N(Cc2ccc(OCCF)cc2)c2ccc(S(=O)(=O)N3CCC[C@H]3COc3cccnc3)cc21 [WC-II-100]

- IC50 (caspase 1; [8]): > 10000 nM
- IC50 (caspase 6; [9]): > 5000 nM
- IC50 (caspase 7; [10]): 15.1 ± 0.1 nM
- IC50 (caspase-3; [11]): 8.4 ± 2 nM
- IC50 (caspase 8; [12]): > 50000 nM
Compound: O=C1C(=O)N(Cc2ccc(F)cc2)c2ccc(S(=O)(=O)N3CCCC3COc3cccnc3)cc21 (stereo not shown) [Compound 21e, 1-(4-Fluorobenzyl)-5-(2-(pyridin-3-yl-oxymethyl)-pyrrolidine-1-sulfonyl)-1H-indole-2,3-dione]
